Measured values taken from the NIST ThermoML archive (doi:10.1021/je100089s).

How the values were obtained:
[1] = Liquid, Vibrating tube method
[2] = xn = mol fraction of the nth substance listed; details: Liquid, Vibrating tube method, x1 = 1

C[S+](C)[O-] [dimethyl sulfoxide]
mass density [kg/m3], [1]
Details	101 kPa	10000 kPa	25000 kPa	50000 kPa	75000 kPa	100000 kPa
298.15 K	1095.36	1101.16	1109.51	1122.86	–	–
308.15 K	1085.36	1091.6	1100.65	1115.13	1128.21	1136.76
323.15 K	1070.28	1076.9	1086.87	1102.44	1115.12	1123.25

C[S+](C)[O-] [dimethyl sulfoxide] + OCCO
mass density [kg/m3], [2]
Details	101 kPa	10000 kPa	25000 kPa	50000 kPa	75000 kPa	100000 kPa
298.15 K	1095.36	1101.16	1109.51	1122.86	–	–
308.15 K	1085.36	1091.6	1100.65	1115.13	1128.21	1136.76
323.15 K	1070.28	1076.9	1086.87	1102.44	1115.12	1123.25

OCCO [1,2-ethanediol]
mass density [kg/m3], [1]
Details	101 kPa	10000 kPa	25000 kPa	50000 kPa	75000 kPa	100000 kPa
278.15 K	1123.77	1127.65	1133.2	1141.71	1149.55	1157.24
288.15 K	–	1120.87	1126.51	1135.26	1143.65	1151.55
298.15 K	–	1113.97	1119.78	1128.78	1137.41	1145.51
308.15 K	–	1107.05	1112.97	1122.28	1131.41	1139.57
323.15 K	1092.12	–	–	1112.75	1122.55	1130.66
